In patent US20060281735A1, “Antipsychotic combination therapies and compositions of an alpha-2 adrenergic receptor antagonist and an atypical antipsychotic neuroleptic” (priority 2002, published 2006):

Columns and labels:
α2 receptor = details: idazoxan; stated with Litman et al. 1996; cited from earlier work
α2 autoreceptors = details: presynaptic level; antagonism of clonidine; cited from earlier work
α2 adrenoreceptors = details: binding studies; cited from earlier work
Wistar rats = assay: Conditioned avoidance response (CAR) behavior in rats; format: in vivo; details: rat CAR; 2.5 mg/kg with idazoxan versus about 5 mg/kg alone
From the text: Adult, male Wistar rats, 200-225 g (B & K Universal, Sollentuna, Sweden) were used. The animals were housed under standard laboratory conditions, on a reversed light/dark cycle (lights off 08:00 am), and allowed 1 week of adaptation to laboratory conditions before being used in experiments. Food and water were available ad libitum.
Rats were trained and tested in a conventional, manually operated two-way active avoidance (shuttlebox) apparatus connected to a high resistance power supply. The box was divided into two compartments of equal size by a partition with one opening. Upon presentation of the 80 dB white noise conditioned stimulus (CS), the animals had 10 seconds to move from one compartment of the shuttlebox into the other. If the rat remained in the same compartment for more than 10 seconds, an intermittent electric shock (approx. 0.2 mA of 0.5-sec duration; intershock interval 2.5 sec), the unconditioned stimulus (UCS), was presented in the grid floor until an escape was performed. […] Intertrial intervals varied at random between 20 and 40 seconds. The following variables were recorded: avoidance (response to CS within 10 sec); escape (response to CS+UCS); escape failures (failure to respond); and intertrial crosses. The animals were trained for 3 consecutive days. Training sessions were run over 15 minutes. […]

[1] = test system: α2-adrenergic receptor versus D2 receptor; details: literature; cited from earlier work
D2 dopamine receptor = molecular target: T1, D2 dopamine receptor (Homo sapiens, UniProt P14416); details: at effective antipsychotic treatment; literature; cited from earlier work
T1 construct: In vivo D2 occupancy can be determined using finctional brain imaging technologies such as Positron Emission Tomography (PET); host or cells: brain of treated patients, in vivo imaging
T1 sequence (P14416 whole entry): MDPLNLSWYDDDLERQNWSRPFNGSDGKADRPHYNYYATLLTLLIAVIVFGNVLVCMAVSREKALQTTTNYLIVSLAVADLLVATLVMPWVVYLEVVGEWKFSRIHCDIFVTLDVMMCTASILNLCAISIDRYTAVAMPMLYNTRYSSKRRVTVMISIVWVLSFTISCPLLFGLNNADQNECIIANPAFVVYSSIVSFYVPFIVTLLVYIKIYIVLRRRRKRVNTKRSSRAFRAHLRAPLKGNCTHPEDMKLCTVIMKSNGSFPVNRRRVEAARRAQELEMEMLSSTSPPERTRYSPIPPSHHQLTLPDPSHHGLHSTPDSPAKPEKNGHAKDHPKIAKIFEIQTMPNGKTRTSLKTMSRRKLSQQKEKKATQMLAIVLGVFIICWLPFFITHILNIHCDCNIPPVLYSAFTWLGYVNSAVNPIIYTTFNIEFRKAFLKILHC

c1ccc2c(c1)OCC(C1=NCCN1)O2 (racemic) [idazoxan, ±-2-(1,4-benzodioxan-2-yl)-d-imidazoline]
Ki (α2 receptor): ~30 nM

c1ccc2c(c1)OCC(C1=NCCN1)O2 (single isomer, unassigned; (+)) [(+)-idazoxan]
Affinity towards the α2 autoreceptors, times higher than (−) idazoxan (α2 autoreceptors): 40 times
Potency in inhibiting p-[3H]aminoclonidine binding, times more potent than the other enantiomer (α2 adrenoreceptors): 7-8 times

Cc1cc2c(s1)Nc1ccccc1N=C2N1CCN(C)CC1 [olanzapine]
Reduction of olanzapine dose required for effective antipsychotic effect through adjunct idazoxan (Wistar rats): ~50%

OCCOCCN1CCN(C2=Nc3ccccc3Sc3ccccc32)CC1 [quetiapine]
Fold less affinity for the α2 adrenergic receptor than for the dopamine D2 receptor [1]: 6-16 fold

Cc1nc2n(c(=O)c1CCN1CCC(c3noc4cc(F)ccc34)CC1)CCCC2 [risperidone]
Fold less affinity for the α2 adrenergic receptor than for the dopamine D2 receptor [1]: 2-16 fold
In vivo D2 occupancy (D2 dopamine receptor): ≥ 70%

O=C1Cc2cc(CCN3CCN(c4nsc5ccccc45)CC3)c(Cl)cc2N1 [ziprasidone]
Fold less affinity for the α2 adrenergic receptor than for the dopamine D2 receptor [1]: 100 fold
